Measured values: US10828379B2, “In vivo differentiation of relative oxygen levels and tumor necrosis using divalent europium” (WAYNE STATE UNIVERSITY, priority 2015, dated 2020)

Key:
[1] = system: 4T1 mammary carcinoma; test: In vivo T1-weighted MRI after intratumoral injection, with histological staining; parameters: species or system mouse; details: bladder, liver, kidneys; Gd control 50 μL, 20.5 mM
Method: To test whether Eu^II-222Fb would enhance contrast in necrotic tissue, we performed T1-weighted MRI before and after intratumoral injection of Eu^II-222Fb (50 μL, 19.4 mM) into a 4T1 mammary carcinoma. The 4T1 carcinoma model is an aggressive tumor that typically develops a necrotic core,^[10] and imaging was performed when tumors reached approximately 700-1000 mg to maximize the probability of necrosis. Images were acquired before and at 3, 20, and 120 min after intratumoral injection (FIG. 3A-D). […]
To better understand the potential mechanism of differentiation, we performed an intratumoral injection of Eu^II-222Fb (50 μL, 6.9 mM) and monitored contrast enhancement over the course of 3 h before sacrificing the mouse and removing the injected tumor for analysis of Eu content by inductively coupled plasma mass spectrometry. […]
Studies in animals were carried out with the assistance of the Animal Model and Therapeutics Evaluation Core of the Barbara Ann Karmanos Cancer Institute after approval from the Wayne State University Institutional Animal Care and Use Committee. […] Animals were pooled, implanted bilaterally subcutaneously with 30-60 mg tumor fragments with a 12 gauge trocar, and imaged when tumors reached approximately 700-1000 mg in size (determined by caliper measurements: tumor mass (mg)≈[tumor length (mm)×tumor width^2 (mm^2)]/2). […]

[2] = In vivo T1-weighted MRI after intravenous, intraperitoneal and subcutaneous injection; parameters: species or system mouse; details: liver, kidneys, bladder; equivalent dose for Gd control
Method: To test our hypothesis regarding the in vivo response of Eu^II-222, we acquired T1-weighted images of mice after administering Eu^II-222 (0.1 mL, 4 mM, europium dose of 3 mg/kg) through intravenous, intraperitoneal, and subcutaneous injections (FIG. 8). Mice were imaged prior to injection and at 3 and 8 min to compare responses with the three injection types. […] Although this observation is inconsistent with the low oxygen content of venous blood (relative to the peritoneal cavity), the circulation time of blood in a mouse is approximately 8 s (38). […] Therefore, the exchange between venous and arterial blood during circulation can explain our observations.
Studies in animals were carried out with the assistance of the Animal Model and Therapeutics Evaluation Core of the Barbara Ann Karmanos Cancer Institute after approval from the Wayne State University Institutional Animal Care and Use Committee. MRI scans were performed in the Elliman Clinical Research Building at Wayne State University with a 7 T Bruker Clinscan small animal MRI scanner equipped with a 30 cm bore. […]
For intravenous injections, mice were catheterized before being anesthetized with isoflurane. […] A correction volume (0.08 mL) was added to the calculated dose volumes for intravenous injections to account for the volume of the phosphate-buffered saline within the catheter. […]

Compound	contrast enhancement in organs associated with clearance after intratumoral injection [1]	contrast enhancement in organs associated with clearance after intravenous injection [2]
Gd^III-1,4,7,10-tetraazacyclododecane-1,4,7,10-tetraacetate	bright with contrast within minutes of the injection	–
O=C([O-])CN(CCN(CC(=O)[O-])CC(=O)[O-])CCN(CC(=O)[O-])CC(=O)[O-].[Gd+3] [Gd^III-diethylenetriaminepentaacetate]	–	positive contrast enhancement was observed in the kidneys within 3 min
